Assay results reported in paper PMC3758320, “Fate of Ingested Clostridium difficile Spores in Mice” (PLoS ONE, 2013).

Experiments:
[1] = test system: C. difficile spore germination; design: method as in PMID 21478359; settings: in vitro; read-out: IC50, inhibition of C. difficile spore germination; cited from earlier work
mice [2] = settings: mouse, in vivo, po
Experimental: (§5) CamSA was dissolved in DMSO to a concentration of 100 mg/ml. […] A control group was administered DMSO.

C. difficile spores [3] = assay: Prevention of CDI by bile salt analogs in mice challenged with C. difficile spores; type: in vivo, C57BL/6N mice; settings: for CDI signs: mice challenged with 10^8 CFU C. difficile spores, three doses
L. gasseri [4] = type: cell-based
[5] = Stability in artificial gastric juice; type: in vitro ADME; settings: 24 hours incubation, 37°C, TLC
Experimental: (§1) CamSA was analyzed for stability in simulated gastric and intestinal juices as published. Briefly, 100 mg CamSA was added to 1 ml of either artificial intestinal or artificial gastric juice and incubated at 37°C. Aliquots were taken at 4, 8, 12, and 24 hours. Samples (1 µl) were spotted on silica TLC plates and allowed to air dry. Plates were developed with 75% ethyl acetate/methanol. TLC plates were visualized by spraying with a 10% wt/vol phosphomolybdic acid (PMA)/ethanol solution followed by heating at 100°C for 2 minutes. Quantification of CamSA was determined using a GE Healthcare Typhoon 9410 Variable Mode Imager and analyzed using ImageQuant TL 5.2 software.

mice [6] = assay: Acute toxicity in mice (Fixed Dose Procedure); settings: oral gavage, three consecutive days, doses up to saturating 300 mg/kg
Experimental: as §5

Vero cells [7] = assay: C. difficile toxin-induced cell death (spent media on Vero cells); type: cell-based; settings: 200 µM; Vero cells exposed 24 hours
Experimental: C. difficile strain 630 spores were washed five times with nanopure water, heat activated at 68°C for 30 minutes and washed five more times with water. Spore pellets were resuspended in 0.1 M sodium phosphate buffer supplemented with 0.5% sodium bicarbonate (pH 6.0) to an OD580 of 1.0. […] Spore suspensions were incubated anaerobically at 37°C overnight. The following day, C. difficile cells and spores were removed by centrifugation and spent media filter sterilized. In parallel, Vero and Caco-2 cells were cultured in 96-well plates, as described above. The mammalian cell cultures were then exposed to varying concentrations of sterile spent media for 24 hours. Cell viability was determined as before with the CellTiter Glo viability kit. The luminescence signals from cell cultures supplemented with 0% spent media were set as 100% cell viability. Percent survival for other conditions was calculated relative to these untreated cells.

B. longum [8] = type: cell-based
E. coli [9] = assay: Stability after incubation with E. coli cultures; settings: 24 hour incubation
C. difficile spores [10] = test system: C. difficile spores; design: method as in PMID 23420906; settings: single 50 mg/kg dose; without any observable toxicity; cited from earlier work
C. difficile = assay: Effect on bacterial growth (C. difficile vegetative cells); type: cell-based; settings: 10 mM in growth medium, OD580 over 8 hours
Experimental: (§2) Laboratory strains of E. coli DH5α, B. longum, L. gasseri, and C. difficile were individually inoculated from freezer stock onto appropriate agar medium as directed by ATCC. Plates were incubated overnight at 37°C either aerobically (L. gasseri and E. coli) or anaerobically (C. difficile and B. longum). Anaerobic conditions consisted of a 5% CO2, 10% H2, and 85% N2 environment. Single cell clones were carefully selected and used to inoculate 5 mL of liquid medium. Inoculated broth was shaken at 37°C for approximately four hours until optical density at 580 nm reached 0.8 representing exponential phase of growth. […] An increase of optical density at 580 nm (OD580) was used to measure exponential bacterial growth. The OD580 was recorded at 0, 1, 2, 3, 4, 6, and 8 hours post subculture inoculation. Growth inhibition was determined by comparing optical density of bile salt-treated cultures with untreated control cultures.

B. longum [11] = assay: Stability after incubation with BSH-producing bacteria (B. longum); settings: 24 hours, 6 mM bile salt
[12] = Stability in growth medium alone; type: in vitro ADME
Experimental: Following previous procedures, Escherichia coli DH5α, Bifidobacterium longum (ATCC BAA-999) and Lactobacillus gasseri (ATCC 33323) were incubated for 24 hours at 37°C. […] Samples of spent media were taken at 4, 8, 12, and 24 hours. Bile salt concentration was monitored by TLC as above. Percent conjugated bile salts were derived by dividing the intensity of TLC spots obtained at different times by the intensity of the TLC spot obtained before incubation.

L. gasseri [13] = assay: Stability after incubation with BSH-producing bacteria (L. gasseri); settings: 24 hours, 6 mM bile salt
[14] = test system: murine macrophages J774A.1; assay: Cytotoxicity in murine macrophages J774A.1; type: cell-based; settings: macrophage cells, overnight
Experimental: (§3) Vero cells, Caco-2 cells, and murine macrophages J774A.1 were seeded in complete medium (minimum essential medium (MEM), 10% fetal bovine serum (FBS), and 1% penicillin/streptomycin). Cells were grown at 37°C with 5% CO2. Cells were detached by incubation with 1 mM EDTA-trypsin for 5 minutes. Complete medium was then added and monolayers lifted with a cell scraper. Cells were recovered at 800×g for 5 minutes at room temperature and the cell pellet was resuspended in fresh complete medium. A sample of cell suspension was treated with trypan blue to determine background non-viable cells. […]
(§4) The 12-well plates containing cell cultures were used as a qualitative method to determine cytotoxicity by visual observation of morphological changes, such as cell rounding. Cell viability was also determined by trypan blue dye exclusion staining. The 96-well plates cultured with mammalian cells were used as a quantitative method to determine cytotoxicity using the CellTiter Glo Luminescent cell viability assay. This assay quantitates the concentration of ATP, which indicates metabolically active cells. […] Luminescence was read with an integration time of 1 second per well using a Tecan Infinite 200 plate reader and iControl software. The luminescence signals from cell cultures supplemented with DMSO only were set as 100% cell viability. […]

Caco-2 cell monolayer = assay: Caco-2 permeability assay
Vero cells [15] = assay: Cytotoxicity in Vero cells; type: cell-based; settings: overnight
Experimental: as §3, §4

E. coli [16] = assay: Effect on bacterial growth (E. coli); type: cell-based, E. coli DH5α; settings: 10 mM in growth medium, OD580 over 8 hours
Experimental: as §2

C. difficile spores [17] = assay: Enumeration of C. difficile vegetative cells and spores in GI contents and feces of treated mice; type: in vivo, C57BL/6N mice
Experimental: Cages from infected animals were changed and feces were collected at different time points. Selected animals were sacrificed at different time points and their GI tract observed for signs of disease. Gastrointestinal tracts were removed in blocks and GI tract contents were flushed with autoclaved water. Feces and intestinal contents were weighed and homogenized in autoclaved water. Aliquots of the fecal suspensions were heated to 68°C for 30 minutes. Heated and unheated feces and GI tract contents were serially diluted in water and plated on Clostridium difficile selective agar (CDSA). Plates were incubated anaerobically for 48 hours and colonies were counted to enumerate colony-forming units (CFUs). CFUs obtained from unheated samples represent the sum of C. difficile vegetative cells and spores. CFUs obtained from heated samples represent the number of C. difficile spores only. The presence of C. difficile was verified by PRO disk.

Caco-2 cells = assay: Cytotoxicity in Caco-2 cells; type: cell-based; settings: overnight
Experimental: as §3, §4

C. difficile spores [18] = assay: Outgrowth of C. difficile spores in germination medium; type: cell-based, C. difficile strain 630; settings: 200 µM in medium, overnight
C. difficile spores [19] = assay: Onset of CDI signs in mice (timing of dosage); type: in vivo, C57BL/6N mice
Experimental: Antibiotic treated mice were challenged by oral gavage with 10^8 CFUs of C. difficile strain 630 spores. Individual groups of five mice were treated with a single 300 mg/kg dose of CamSA at 0, 6, 9 or 12 hours post-spore challenge. A second 300 mg/kg dose of CamSA was administered 24 hours after the first dose.

[20] = Stability in artificial intestinal juice; type: in vitro ADME; settings: 24 hours incubation, 37°C, TLC
Experimental: as §1

[21] = Caco-2 permeability assay; settings: human, Caco-2
[22] = Caco-2, 10 µM, 2 hour incubation
[23] = 300 mg/kg given at 9 or 12 hours post-challenge

In the case of C[C@H](CCC(=O)O)[C@H]1CC[C@H]2[C@@H]3[C@H](O)C[C@@H]4C[C@H](O)CC[C@]4(C)[C@H]3CC[C@]12C [chenodeoxycholate], the IC50 [1] is listed as 235 µM, the observable side effects (mice [2]; 50 mg/kg) is listed as “did not cause any observable side effects” and the acute toxicity outcome (mice [2]; 300 mg/kg) is listed as “immediate death”. For the same compound, the “delay of CDI onset” value (C. difficile spores [3]; 50 mg/kg) was 24 h and the CDI signs (C. difficile spores [3]; 50 mg/kg oral gavage) was “moderate to severe signs of CDI”.
In the case of C[C@H](CCC(=O)Nc1cccc(S(=O)(=O)O)c1)[C@H]1CC[C@H]2[C@@H]3[C@H](O)C[C@@H]4C[C@H](O)CC[C@]4(C)[C@H]3C[C@H](O)[C@]12C [CamSA], the “growth of L. gasseri” value (L. gasseri [4]) is reported as “unaffected”, the “degradation in artificial gastric juice” value [5] is reported as “No degradation” and the “physical adverse effects or weight loss” value (mice [6]) is reported as “No physical adverse effects or weight loss”. The “cell killing by spent media from treated bacterial cultures” value (Vero cells [7]) was “less effective at killing epithelial cells”, the “growth of B. longum” value (B. longum [8]) was “unaffected” and the “stability in E. coli cultures” value (E. coli [9]) was “stable”. The “prevention of CDI in mice” value (C. difficile spores [10]) was “prevented CDI”, the “growth of C. difficile cells” value (C. difficile) was “grew normally” and the “hydrolysis to cholic acid by B. longum culture” value (B. longum [11]) was “hydrolyzed to cholic acid at similar rates”. The “degradation in growth medium alone” value [12] was “not degraded”, the “fraction hydrolyzed to cholic acid by L. gasseri culture” value (L. gasseri [13]) was “Less than 30%” and the “cell viability, visual observation and trypan blue staining” value (“cell viability” for short) [14] was “appeared healthy”. The “Comment: efflux” value (Caco-2 cell monolayer; 10 µM, two hours) was “Efflux substrate”, the “Comment: permeability ranking” value (Caco-2 cell monolayer; 10 µM, two hours) was “Low (Low (Papp < 0.5))” and the “Efflux Ratio” value (Caco-2 cell monolayer; 10 µM, two hours, >2 indicates significant efflux activity) was greater than 2. For the same compound, the “apical to basolateral apparent permeability coefficient (Papp)” value (Caco-2 cell monolayer; [22]) was < 10^−6 cm/s, the “basolateral to apical Papp” value (Caco-2 cell monolayer; [22]) was 10.9 ×10⁻⁶ cm/s and the recovery (Caco-2 cell monolayer; both A→B and B→A assays) was 100%. For the same compound, the “cell viability” value (Vero cells [15]) was “appeared healthy”, the “growth of E. coli” value (E. coli [16]) was “unaffected” and the “C. difficile vegetative cells in feces compared to spore counts” value (C. difficile spores [17]; mice treated with 50 mg/kg) was less than 10%. For the same compound, the “C. difficile content of feces” value (C. difficile spores [17]; treated mice) was “almost exclusively spores”, the “spores recovered from the cecum and colon” value (C. difficile spores [17]; treated mice, before the decrease (up to 72 hours after spore challenge)) was “greater than 12×10^5 CFUs” and the “spores recovered from the cecum and colon” value (C. difficile spores [17]; treated mice, by 96 hours after spore challenge) was “less than 2×10^5 CFUs”. For the same compound, the “duration of excretion of ingested C. difficile spores post-challenge” value (C. difficile spores [17]; treated mice, feces) was “at least 96 hours”, the “start of excretion of ingested C. difficile spores post-challenge” value (C. difficile spores [17]; treated mice, feces) was 2 h and the CDI signs (C. difficile spores [3]; 50 mg/kg oral gavage) was “no sign of CDI”. For the same compound, the CDI signs (C. difficile spores [3]; 300 mg/kg oral gavage) was “no sign of CDI”, the “time without signs of CDI post-challenge” value (C. difficile spores [3]; treated, spore-challenged mice) was no less than 14 days and the “cell viability” value (Caco-2 cells) was “appeared healthy”. For the same compound, the “bacterial growth from C. difficile spores” value (C. difficile spores [18]) was “reduced but not eliminated”, the CDI outcome (C. difficile spores [19]; [23]) was “developed severe CDI” and the “time to clinical endpoint post infection” value (C. difficile spores [19]; [23]) was 48 h. The “protection from CDI” value (C. difficile spores [19]; 300 mg/kg given up to 6 hours post-challenge) was “fully protected from CDI” and the “degradation in artificial intestinal juice” value [20] was “No degradation”.
In the case of CNC(=C[N+](=O)[O-])NCCSCc1ccc(CN(C)C)o1 [Ranitidine], the Papp A→B at 2 h, 10 µM [21] is reported as 0.3 ×10⁻⁶ cm/s, the Papp at 2 h, 10 µM [21] is reported as less than 0.5 ×10⁻⁶ cm/s and the efflux ratio at 2 h, 10 µM [21] is reported as 5.3.
For CC(=O)CC(c1ccccc1)c1c(O)c2ccccc2oc1=O (centres unmarked) [Warfarin], the Papp A→B at 2 h, 10 µM [21] was 42.9 ×10⁻⁶ cm/s, the Papp B→A at 2 h, 10 µM [21] was 16 ×10⁻⁶ cm/s and the Papp at 2 h, 10 µM [21] was greater than 5 ×10⁻⁶ cm/s. For the same compound, the efflux ratio at 2 h, 10 µM [21] was 0.4.
